We go through 30 compounds from ChEMBL document CHEMBL5390257, “Fused Tetrahydroquinolines Are Interfering with Your Assay” (J Med Chem, 2023).

A value given as a limit tells only on which side of the number the result lay.

What is called Ki is a dissociation constant, usually derived from enzyme kinetics or from competition with a known ligand. In general, IC50 refers to the concentration that gives 50% inhibition.

The target of experiment [1] is SH3 and multiple ankyrin repeat domains protein 3 (Mus musculus, UniProt Q4ACU6). Nature of the experiment: Binding affinity to His-tagged murine Shank3 PDZ domain assessed as inhibition constant by fluorescence polarization assay. In general terms: In fluorescence polarisation assays a small probe gives low polarisation when free and higher when bound to something large.

The target of experiment [2] is T1, M-phase inducer phosphatase 2 (Homo sapiens, UniProt P30305).
T1 sequence (P30305 whole entry): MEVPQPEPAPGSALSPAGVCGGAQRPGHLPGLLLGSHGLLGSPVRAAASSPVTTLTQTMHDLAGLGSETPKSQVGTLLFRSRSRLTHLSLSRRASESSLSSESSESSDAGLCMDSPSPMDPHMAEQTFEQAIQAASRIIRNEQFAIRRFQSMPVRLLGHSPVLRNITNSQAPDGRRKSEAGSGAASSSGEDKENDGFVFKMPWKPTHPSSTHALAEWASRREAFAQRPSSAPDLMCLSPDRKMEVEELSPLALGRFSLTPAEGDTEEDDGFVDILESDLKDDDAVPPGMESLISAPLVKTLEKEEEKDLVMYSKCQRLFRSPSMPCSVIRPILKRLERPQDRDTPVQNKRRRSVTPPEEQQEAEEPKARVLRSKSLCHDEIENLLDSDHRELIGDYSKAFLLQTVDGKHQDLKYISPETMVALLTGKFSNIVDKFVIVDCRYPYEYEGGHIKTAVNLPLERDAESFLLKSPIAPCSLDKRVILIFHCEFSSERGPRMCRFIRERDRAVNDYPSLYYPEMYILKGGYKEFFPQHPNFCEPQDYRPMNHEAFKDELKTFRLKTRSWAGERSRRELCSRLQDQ
Briefly: Inhibition of full-length 6His/GST-tagged recombinant human CDC25B using OMFP as substrate incubated for 60 mins by fluorescence based analysis.

Experiment [3] has as its target T2, Tyrosine-protein phosphatase non-receptor type 7 (Homo sapiens) (UniProt P35236).
T2 sequence (whole entry): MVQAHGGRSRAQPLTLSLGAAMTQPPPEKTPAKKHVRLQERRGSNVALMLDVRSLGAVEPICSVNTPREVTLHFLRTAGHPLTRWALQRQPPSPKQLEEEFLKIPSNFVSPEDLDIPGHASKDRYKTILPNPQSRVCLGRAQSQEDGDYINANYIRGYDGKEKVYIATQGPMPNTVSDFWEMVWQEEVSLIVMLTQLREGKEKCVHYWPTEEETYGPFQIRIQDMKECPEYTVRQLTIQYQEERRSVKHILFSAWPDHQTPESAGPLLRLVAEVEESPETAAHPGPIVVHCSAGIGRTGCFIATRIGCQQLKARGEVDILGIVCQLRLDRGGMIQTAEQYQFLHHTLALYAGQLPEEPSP
Nature of the experiment: Inhibition of PTPN7 (unknown origin) using pNPP as substrate assessed as fraction of control at 100 uM by high-throughput screening assay relative to control.

The target in experiment [4] is T3, Tyrosine-protein phosphatase non-receptor type 1 (Homo sapiens) (UniProt P18031).
T3 sequence (whole entry): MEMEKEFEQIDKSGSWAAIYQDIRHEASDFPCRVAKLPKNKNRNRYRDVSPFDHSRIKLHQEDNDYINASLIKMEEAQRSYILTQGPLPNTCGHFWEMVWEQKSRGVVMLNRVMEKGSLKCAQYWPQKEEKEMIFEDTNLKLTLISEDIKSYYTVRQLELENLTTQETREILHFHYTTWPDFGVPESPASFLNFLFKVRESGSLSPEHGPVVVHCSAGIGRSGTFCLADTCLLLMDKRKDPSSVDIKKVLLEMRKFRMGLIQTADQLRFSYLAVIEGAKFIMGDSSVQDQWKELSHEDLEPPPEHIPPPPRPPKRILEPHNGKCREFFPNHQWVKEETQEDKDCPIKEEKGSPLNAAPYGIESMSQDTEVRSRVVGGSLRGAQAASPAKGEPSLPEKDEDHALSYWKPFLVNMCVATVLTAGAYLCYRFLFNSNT
Nature of the experiment: Inhibition of PTP1B (unknown origin) using pNPP as substrate assessed as fraction of control at 100 uM by high-throughput screening assay relative to control.

Experiment [5] deals with T4, Receptor-type tyrosine-protein phosphatase R (Homo sapiens) (UniProt Q15256).
T4 sequence (whole entry): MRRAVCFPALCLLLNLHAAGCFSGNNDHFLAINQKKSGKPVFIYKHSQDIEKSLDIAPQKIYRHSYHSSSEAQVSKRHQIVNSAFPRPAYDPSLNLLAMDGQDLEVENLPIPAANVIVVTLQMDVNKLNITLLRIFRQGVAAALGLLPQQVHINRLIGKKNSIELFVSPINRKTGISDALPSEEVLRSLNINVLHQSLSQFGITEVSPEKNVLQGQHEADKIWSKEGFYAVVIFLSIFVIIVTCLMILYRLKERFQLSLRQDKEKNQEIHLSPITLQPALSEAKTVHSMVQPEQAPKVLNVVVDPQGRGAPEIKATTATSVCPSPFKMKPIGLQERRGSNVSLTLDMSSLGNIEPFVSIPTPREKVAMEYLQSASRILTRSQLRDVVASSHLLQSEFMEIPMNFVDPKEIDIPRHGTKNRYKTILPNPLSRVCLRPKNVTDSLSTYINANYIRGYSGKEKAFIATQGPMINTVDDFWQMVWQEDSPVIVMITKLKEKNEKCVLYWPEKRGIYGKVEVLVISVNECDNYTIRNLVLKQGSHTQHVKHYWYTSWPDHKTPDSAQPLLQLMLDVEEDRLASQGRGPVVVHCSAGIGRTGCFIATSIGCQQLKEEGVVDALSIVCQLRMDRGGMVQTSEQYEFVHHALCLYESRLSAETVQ
Nature of the experiment: Inhibition of PTPRR (unknown origin) using pNPP as substrate assessed as fraction of control at 100 uM by high-throughput screening assay relative to control.

Experiment [6] concerns the target T5, Tyrosine-protein phosphatase non-receptor type 5 (Homo sapiens) (UniProt P54829).
T5 sequence (whole entry): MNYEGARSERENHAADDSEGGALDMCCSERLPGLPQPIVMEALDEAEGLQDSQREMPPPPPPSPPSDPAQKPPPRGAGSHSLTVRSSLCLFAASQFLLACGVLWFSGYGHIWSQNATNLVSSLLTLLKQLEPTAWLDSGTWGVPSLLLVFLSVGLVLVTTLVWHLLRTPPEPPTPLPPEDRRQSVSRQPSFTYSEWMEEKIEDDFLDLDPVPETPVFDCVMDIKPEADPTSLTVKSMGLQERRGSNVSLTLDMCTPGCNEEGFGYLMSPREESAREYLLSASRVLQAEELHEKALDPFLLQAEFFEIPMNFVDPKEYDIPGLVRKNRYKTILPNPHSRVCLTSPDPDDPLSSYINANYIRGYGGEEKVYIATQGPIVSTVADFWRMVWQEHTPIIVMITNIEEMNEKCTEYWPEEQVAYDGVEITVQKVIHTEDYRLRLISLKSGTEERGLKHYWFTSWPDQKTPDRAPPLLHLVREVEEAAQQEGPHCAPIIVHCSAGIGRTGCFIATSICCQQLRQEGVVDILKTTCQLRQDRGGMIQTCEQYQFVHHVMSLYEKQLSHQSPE
Nature of the experiment: Inhibition of PTPN5 (unknown origin) using pNPP as substrate assessed as fraction of control at 100 uM by high-throughput screening assay relative to control.

A short description of experiment [7]: Inhibition of MurA (unknown origin) preincubated for 30 mins followed by substrate addition and measured after 8 mins by spectrometric analysis. The arrangement: species or system Bacteria.
Experiment [8] can be described thus: Binding affinity to Yellow fever virus 17D recombinant NS5 N-terminal capping enzyme domain expressed in Escherichia coli BL21 (DE3) assessed as inhibition constant incubated for 1 hr by high-throughput screening fluorescence polarization assay.
Experiment [9] can be described thus: Inhibition of Helicobacter pylori recombinant IspD domain of IspDF by HTS based photometric assay.
Experiment [10] has as its target Diacylglycerol kinase alpha (Sus scrofa, UniProt P20192). Nature of the experiment: Inhibition of GST-fused pig DGK alpha expressed in Sf9 insect cells incubated for 2 hrs by HTS ADP-Glo DGK assay. For orientation: ADP-Glo turns the ADP formed in a reaction into a luminescent signal.
In experiment [11] the target is Serine/threonine-protein kinase PLK1 (Homo sapiens, UniProt P53350). Nature of the experiment: Inhibition of GST-tagged recombinant PLK1 (unknown origin) using 5-carboxyfluorescein-KKRNRRLSVA-OH peptide as substrate incubated for 3 hrs in presence of ATP by HTS TR-FRET assay. (In general: Time-resolved FRET reads energy transfer from a long-lived donor to a nearby acceptor.)

In experiment [12] the target is T6, Tyrosine-protein phosphatase non-receptor type 1 (Homo sapiens, UniProt P18031).
T6 sequence (P18031 whole entry): T3 sequence (whole entry)
Briefly: Inhibition of human recombinant PTP1B using OMFP as substrate incubated for 60 mins by fluorescence based analysis.

Sequence of SH3 and multiple ankyrin repeat domains protein 3 (Q4ACU6 whole entry, the tested form may be a part): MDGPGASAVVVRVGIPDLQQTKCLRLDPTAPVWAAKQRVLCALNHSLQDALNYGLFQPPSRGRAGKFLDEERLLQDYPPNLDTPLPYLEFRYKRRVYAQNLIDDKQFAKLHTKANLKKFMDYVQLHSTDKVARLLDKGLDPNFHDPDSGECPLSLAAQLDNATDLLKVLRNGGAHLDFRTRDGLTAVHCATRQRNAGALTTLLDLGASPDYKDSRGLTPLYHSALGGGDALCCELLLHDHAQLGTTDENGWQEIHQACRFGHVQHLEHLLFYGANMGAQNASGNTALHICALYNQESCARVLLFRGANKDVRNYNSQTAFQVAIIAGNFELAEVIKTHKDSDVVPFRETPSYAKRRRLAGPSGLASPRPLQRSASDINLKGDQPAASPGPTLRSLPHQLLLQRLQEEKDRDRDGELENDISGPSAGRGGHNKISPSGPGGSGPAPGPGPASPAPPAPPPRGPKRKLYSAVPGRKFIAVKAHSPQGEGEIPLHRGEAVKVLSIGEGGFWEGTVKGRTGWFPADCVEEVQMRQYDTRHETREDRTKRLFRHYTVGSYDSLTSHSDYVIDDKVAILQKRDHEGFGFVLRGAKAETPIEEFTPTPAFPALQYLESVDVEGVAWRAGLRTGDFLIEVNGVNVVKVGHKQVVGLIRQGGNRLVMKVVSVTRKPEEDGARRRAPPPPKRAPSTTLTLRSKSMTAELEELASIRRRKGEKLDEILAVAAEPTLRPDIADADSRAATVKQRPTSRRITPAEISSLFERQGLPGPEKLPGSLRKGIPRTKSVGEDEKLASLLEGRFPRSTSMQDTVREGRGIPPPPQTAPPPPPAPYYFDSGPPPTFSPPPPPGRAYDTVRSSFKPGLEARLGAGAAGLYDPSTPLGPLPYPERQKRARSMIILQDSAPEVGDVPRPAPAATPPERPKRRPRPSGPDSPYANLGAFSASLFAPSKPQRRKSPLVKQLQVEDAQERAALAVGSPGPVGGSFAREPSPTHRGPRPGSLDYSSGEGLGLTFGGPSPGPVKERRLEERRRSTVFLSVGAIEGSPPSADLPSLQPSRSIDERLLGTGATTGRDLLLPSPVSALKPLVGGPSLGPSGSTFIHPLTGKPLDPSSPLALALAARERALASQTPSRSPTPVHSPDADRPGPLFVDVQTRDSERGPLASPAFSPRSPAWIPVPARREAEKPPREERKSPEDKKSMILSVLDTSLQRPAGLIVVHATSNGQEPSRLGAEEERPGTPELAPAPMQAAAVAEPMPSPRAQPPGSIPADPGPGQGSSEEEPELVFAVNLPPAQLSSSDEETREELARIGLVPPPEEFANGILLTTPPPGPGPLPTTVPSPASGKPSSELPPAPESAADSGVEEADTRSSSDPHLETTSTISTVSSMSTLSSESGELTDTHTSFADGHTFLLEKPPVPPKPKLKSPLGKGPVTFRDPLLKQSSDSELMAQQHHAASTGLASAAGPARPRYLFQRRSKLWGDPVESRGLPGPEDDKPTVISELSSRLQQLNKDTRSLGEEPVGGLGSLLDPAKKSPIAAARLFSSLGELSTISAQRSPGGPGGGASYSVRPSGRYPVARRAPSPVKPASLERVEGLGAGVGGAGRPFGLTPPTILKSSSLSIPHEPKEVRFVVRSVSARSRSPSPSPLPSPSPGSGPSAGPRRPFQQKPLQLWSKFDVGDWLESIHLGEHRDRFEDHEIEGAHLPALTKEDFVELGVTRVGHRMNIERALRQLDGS
Sequence of Diacylglycerol kinase alpha (P20192 whole entry, the tested form may be a part): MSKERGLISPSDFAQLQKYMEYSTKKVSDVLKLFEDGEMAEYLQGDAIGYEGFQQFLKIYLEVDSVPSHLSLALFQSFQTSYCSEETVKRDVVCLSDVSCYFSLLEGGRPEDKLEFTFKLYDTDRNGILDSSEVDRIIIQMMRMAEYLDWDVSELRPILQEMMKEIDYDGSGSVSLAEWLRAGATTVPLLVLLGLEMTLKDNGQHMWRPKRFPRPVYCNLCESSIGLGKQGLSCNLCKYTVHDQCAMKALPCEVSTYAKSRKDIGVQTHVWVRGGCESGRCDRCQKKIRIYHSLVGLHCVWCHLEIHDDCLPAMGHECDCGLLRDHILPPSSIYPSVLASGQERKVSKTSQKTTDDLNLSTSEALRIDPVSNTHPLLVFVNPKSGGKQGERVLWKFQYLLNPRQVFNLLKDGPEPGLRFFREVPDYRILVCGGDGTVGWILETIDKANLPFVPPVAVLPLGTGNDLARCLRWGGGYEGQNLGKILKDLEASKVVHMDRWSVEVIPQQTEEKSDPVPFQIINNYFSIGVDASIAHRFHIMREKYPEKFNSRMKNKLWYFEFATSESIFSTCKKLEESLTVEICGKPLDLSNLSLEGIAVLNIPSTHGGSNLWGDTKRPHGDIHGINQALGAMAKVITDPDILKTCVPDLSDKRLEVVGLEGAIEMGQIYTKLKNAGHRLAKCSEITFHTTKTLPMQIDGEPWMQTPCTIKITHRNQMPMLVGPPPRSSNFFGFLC
Sequence of Serine/threonine-protein kinase PLK1 (P53350 whole entry): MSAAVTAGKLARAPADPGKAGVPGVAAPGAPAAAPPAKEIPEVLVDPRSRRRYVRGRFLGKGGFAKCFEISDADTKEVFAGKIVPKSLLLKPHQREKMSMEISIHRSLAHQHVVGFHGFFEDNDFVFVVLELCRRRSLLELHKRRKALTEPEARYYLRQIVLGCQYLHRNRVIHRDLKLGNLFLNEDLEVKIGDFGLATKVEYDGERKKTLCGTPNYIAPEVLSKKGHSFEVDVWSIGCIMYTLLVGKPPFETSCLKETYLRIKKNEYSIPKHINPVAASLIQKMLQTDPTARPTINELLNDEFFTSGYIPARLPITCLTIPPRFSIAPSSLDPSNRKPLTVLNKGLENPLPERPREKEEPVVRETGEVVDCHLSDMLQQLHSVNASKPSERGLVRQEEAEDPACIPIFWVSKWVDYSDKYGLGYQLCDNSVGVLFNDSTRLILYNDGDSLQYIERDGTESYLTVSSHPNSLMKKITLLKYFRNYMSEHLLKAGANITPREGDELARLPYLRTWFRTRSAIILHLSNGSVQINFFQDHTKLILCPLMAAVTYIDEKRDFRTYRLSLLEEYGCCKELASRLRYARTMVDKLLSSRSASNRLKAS

As for `O=C(O)c1ccc([N+](=O)[O-])c2c1N[C@@H](C(=O)O)[C@H]1CC=C[C@@H]21`, the Ki in experiment [1] came to 17 µM.
Consider `O=C(O)C1Nc2ccc(Cl)cc2C2C=CCC12` (stereo not drawn), for which, in experiment [2], the half-inhibitory concentration (IC50) is 2.5 µM.
On to `O=C(O)C1Nc2c(F)cccc2C2C=CCC12` (stereo not drawn), for which the fold change (FC) in experiment [3] worked out at 0.41; in experiment [4], 0.23; in experiment [5] it was 0.08; in experiment [6] it was 0.73.
Turning to `COc1ccc2c(c1)C1C=CCC1C(C(=O)O)N2` (stereo not drawn), in [7], the half-maximal inhibitory concentration (IC50) is < 5 µM.
In the case of `O=C(O)C1Nc2ccc(Br)cc2C2C=CCC12` (stereo not drawn), the fold change (FC) in [3] was 0.41; in experiment [4], 0.23; in experiment [5], 0.08; in experiment [6], 0.73.
In the case of `O=C(O)c1ccc2c(c1)NC(C(=O)O)C1CC=CC21` (stereo not drawn), the IC50 in experiment [7] was < 5 µM.
Still for that read-out and setting: to `O=C(O)C1Nc2cc(-c3cccnc3)ccc2C2C=CCC12` (stereo not drawn) belongs < 5 µM; to `O=C(O)C1Nc2ccc(OC(F)(F)F)cc2C2C=CCC12` (stereo not drawn), < 5 µM; to `O=C(O)c1cccc2c1C1C=CCC1C(C(=O)O)N2` (stereo not drawn), < 5 µM.
On to `CC(=O)Nc1ccc2c(c1)NC(C(=O)O)C1CC=CC21` (stereo not drawn), for which, in experiment [7], the IC50 was < 5 µM.
For `O=C(O)C1Nc2c(I)cccc2C2C=CCC12` (stereo not drawn), in [8], the Ki turned out to be 7.1 µM.
For `O=C(O)C1Nc2ccc(Oc3ccccc3)cc2C2C=CCC12` (stereo not drawn), the IC50 in experiment [9] was 2.4 µM.
Regarding `COC(=O)c1cccc2c1NC(C(=O)O)C1CC=CC21` (stereo not drawn), the concentration for half-maximal inhibition (IC50) in experiment [7] is < 5 µM.
On to `O=C(O)c1cccc2c1NC(C(=O)O)C1CC=CC21` (stereo not drawn), for which the fold change (FC) in experiment [3] was determined as 0.41; in experiment [4], 0.23; in [5] it was 0.08; in experiment [6] it was 0.73. Moreover, the half-inhibitory concentration (IC50) was 2.5 µM in [2] and < 5 µM in [7].
As for `CC(=O)c1ccc2c(c1)C1C=CCC1C(C(=O)O)N2` (stereo not drawn), the fold change (FC) in experiment [3] is 0.41; in experiment [4] it was 0.23; in [5], 0.08; in experiment [6], 0.73. Also, the 50% inhibitory concentration (IC50) was < 5 µM in experiment [7] and 6 µM in experiment [10].
On to `CC(=O)Nc1ccc(OC(=O)c2cccc3c2NC(C(=O)O)C2CC=CC32)cc1` (stereo not drawn), for which the IC50 in experiment [7] was < 5 µM.
On the same count and under the same terms, the value for `CCOC(=O)C1Nc2cccc(C(=O)O)c2C2C=CCC12` (stereo not drawn) was < 5 µM; that for `NC(=O)c1ccc2c(c1)C1C=CCC1C(C(=O)O)N2` (stereo not drawn) was < 5 µM.
On the same count and under the same terms, the value for `CN(C)C(=O)c1ccc2c(c1)C1C=CCC1C(C(=O)O)N2` (stereo not drawn) was < 5 µM.
In the case of `CNc1ccc2c(c1)C1C=CCC1C(C(=O)O)N2` (stereo not drawn), in experiment [7], the half-maximal inhibitory concentration (IC50) was < 5 µM.
For `O=C(O)C1Nc2ccc(F)cc2C2C=CCC12` (stereo not drawn), in experiment [7], the 50% inhibitory concentration (IC50) is < 5 µM.
Take `Cc1ccc2c(c1)C1C=CCC1C(C(=O)O)N2` (stereo not drawn): the IC50 in experiment [7] is < 5 µM.
For `O=C(O)c1ccc2c(c1)[C@@H]1C=CC[C@@H]1[C@H](c1ccccn1)N2`, the 50% inhibitory concentration (IC50) in [11] was 17 µM.
In the case of `O=C(O)c1ccc2c(c1)[C@@H]1C=CC[C@@H]1[C@H](C(=O)O)N2`, the Ki in experiment [1] stood at 70 µM.
Consider `O=C(O)C1Nc2ccc(Nc3ccccc3)cc2C2C=CCC12` (stereo not drawn), for which the half-maximal inhibitory concentration (IC50) in experiment [7] was < 5 µM.
On the same count and under the same terms, the value for `O=C(O)C1Nc2ccc(F)c(Cl)c2C2C=CCC12` (stereo not drawn) was < 5 µM.
Regarding `O=C(O)C1Nc2c(O)cccc2C2C=CCC12` (stereo not drawn), the fold change (FC) in [3] was determined as 0.41; in [4] it was 0.23; in experiment [5], 0.08; in [6], 0.73.
For the compound `O=C(O)c1ccc2c(c1)C1C=CCC1C(C(=O)O)N2` (stereo not drawn), the fold change (FC) amounted to 0.41 in experiment [3], 0.23 in experiment [4], 0.08 in experiment [5] and 0.73 in [6]. Also, the IC50 is 2.5 µM in experiment [2], < 5 µM in experiment [7] and 6.6 µM in experiment [12].
Consider `O=C(O)C1Nc2ccccc2C2C=CCC12` (stereo not drawn), for which the fold change (FC) in experiment [3] amounted to 0.41; in [4], 0.23; in experiment [5] it was 0.08; in experiment [6] it was 0.73.
With `NC(=O)c1cccc2c1NC(C(=O)O)C1CC=CC21` (stereo not drawn), in [7], the half-inhibitory concentration (IC50) is < 5 µM.
